Among the test systems are EKVX; A549; NCI-H23; HOP-62; SNB-75; MOLT-4; OVCAR-4; KM12; SK-MEL-28; SK-OV-3; UACC-62; A498; HCT-116; M14; OVCAR-5; RPMI-8226; NCI-H460; NCI/ADR-RES; LOX IMVI; HL-60.
Common to all, as to assay: DTP human tumour cell line panel, 48 h

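Growth conditions: 96-well plates. Treatment: test compound, 48 hours, 5 concentrations. Analysis: linear interpolation between bracketing concentrations; unreached endpoints set to highest concentration. The concentration for 50% growth inhibition is given as GI50.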 The source made the active and inactive calls. Cut-off read from the data, not from the text of the source: active = GI50 up to about 1.1 µM and inactive = higher. Bounds are passed on as bounds.

For the compound `COc1cc(N/N=C/C#N)cc(OC)c1OC`, the GI50 (commonly the concentration at which growth is held to half of that of the control) in the experiment on EKVX was > 10 µM (inactive); with A549, > 10 µM (inactive); with NCI-H23 it was 4.34 µM (inactive); in the experiment on HOP-62 it was > 10 µM (inactive); in the experiment on SNB-75, 9.16 µM (inactive); with MOLT-4, 2.92 µM (inactive). In addition, the GI50 in the experiment on OVCAR-4, in the experiment with KM12, with SK-MEL-28, with SK-OV-3, with UACC-62 and in the experiment with A498 was > 10 µM (inactive) each time. Also, the GI50 was > 10 µM (inactive) with HCT-116; > 10 µM (inactive) in the experiment with M14; > 10 µM (inactive) in the experiment with OVCAR-5; 2.16 µM (inactive) in the experiment on RPMI-8226; > 10 µM (inactive) in the experiment with NCI-H460; > 10 µM (inactive) with NCI/ADR-RES. The figures for the GI50 in the experiment on LOX IMVI and in the experiment with HL-60 were 1.54 µM (inactive) and 2.12 µM (inactive), respectively.

As for `COC(=O)c1ccc2c(c1)CCN2C(=O)c1cc2c(cc1Br)OCO2`, the GI50 with EKVX was 4.66 µM (inactive); in the experiment with A549, 1.74 µM (inactive); in the experiment on NCI-H23, 1.44 µM (inactive); in the experiment with HOP-62, 3.87 µM (inactive); in the experiment with SNB-75 it was 0.484 µM (active); with MOLT-4, 0.504 µM (active). The GI50 is 1.54 µM (inactive) in the experiment with OVCAR-4; 0.424 µM (active) in the experiment on KM12; 11 µM (inactive) in the experiment on SK-MEL-28; 3.05 µM (inactive) in the experiment on SK-OV-3; 0.439 µM (active) in the experiment on UACC-62; 1.05 µM (active) with A498. The GI50 with HCT-116 is 0.228 µM (active); in the experiment on M14 it was 0.276 µM (active); in the experiment on OVCAR-5, > 50 µM (inactive); in the experiment with RPMI-8226, 0.668 µM (active); with NCI-H460, 5.81 µM (inactive); in the experiment on NCI/ADR-RES it was 0.342 µM (active). In addition, the GI50 is 3.11 µM (inactive) in the experiment on LOX IMVI and 0.198 µM (active) with HL-60.

As for `COc1ccc2cc(/C=N/NC(=O)Nc3ccccc3)ccc2c1`, the GI50 in the experiment with NCI-H23, with HOP-62, in the experiment with SNB-75, in the experiment on MOLT-4, in the experiment with OVCAR-4 and in the experiment on KM12 was > 100 µM (inactive) in each case. Also, the GI50 in the experiment with SK-MEL-28 was > 10 µM (inactive); in the experiment with SK-OV-3, > 100 µM (inactive); with UACC-62, > 100 µM (inactive); in the experiment with A498 it was > 100 µM (inactive); in the experiment with HCT-116 it was > 100 µM (inactive); with M14, > 100 µM (inactive). The GI50 with OVCAR-5, in the experiment with RPMI-8226, in the experiment on NCI-H460, with NCI/ADR-RES, in the experiment on LOX IMVI and in the experiment on HL-60 was > 100 µM (inactive) each time.

Consider `COC(O)C(=O)c1ccc2c(c1)CC1(C2)Cc2cc3c(cc2C1=O)CCC3` (configuration not stated), for which the GI50 is 19.2 µM (inactive) in the experiment on EKVX; 20.2 µM (inactive) with A549; 24.5 µM (inactive) in the experiment with NCI-H23; 19.5 µM (inactive) in the experiment on HOP-62; 17.9 µM (inactive) with SNB-75; 15 µM (inactive) in the experiment with MOLT-4. The GI50 in the experiment on OVCAR-4 is 16.1 µM (inactive); in the experiment on KM12, 20.9 µM (inactive); in the experiment on SK-MEL-28, 15.1 µM (inactive); in the experiment on SK-OV-3, 16.7 µM (inactive); with UACC-62, 17.9 µM (inactive); with A498 it was 18.7 µM (inactive). Further, the GI50 is 18.9 µM (inactive) with HCT-116; 19.3 µM (inactive) in the experiment with M14; 22 µM (inactive) in the experiment with OVCAR-5; 12.3 µM (inactive) in the experiment with RPMI-8226; 27.9 µM (inactive) in the experiment with NCI-H460; 42.6 µM (inactive) in the experiment on NCI/ADR-RES. For the same compound, the GI50 in the experiment with LOX IMVI is 2.69 µM (inactive); in the experiment with HL-60 it was 9.33 µM (inactive).

On to `CCCCCCCNC(P(=O)(O)O)P(=O)(O)O`, for which the GI50 with EKVX was > 100 µM (inactive); in the experiment with A549, > 100 µM (inactive); with NCI-H23 it was > 100 µM (inactive); in the experiment with HOP-62 it was > 100 µM (inactive); with SNB-75 it was 8.2 µM (inactive); with MOLT-4 it was > 100 µM (inactive). For the same compound, the GI50 in the experiment with OVCAR-4, in the experiment with KM12, in the experiment with SK-MEL-28, in the experiment on SK-OV-3, in the experiment on UACC-62 and in the experiment with A498 was > 100 µM (inactive) throughout. The GI50 is > 100 µM (inactive) in the experiment with HCT-116; > 100 µM (inactive) in the experiment on M14; > 100 µM (inactive) with OVCAR-5; 62.8 µM (inactive) in the experiment on RPMI-8226; > 100 µM (inactive) with NCI-H460; > 100 µM (inactive) with NCI/ADR-RES. For the same compound, the GI50 with LOX IMVI and in the experiment with HL-60 was > 100 µM (inactive) throughout.

With `CCN(CC)c1ccc2c(c1)Oc1ccc(N(C(C)=O)c3ccccc3)cc1C21OC(=O)c2ccccc21` (configuration not stated), the GI50 with EKVX was 84.7 µM (inactive); in the experiment on A549 it was 37.8 µM (inactive); in the experiment with NCI-H23 it was > 68.4 µM (inactive); with HOP-62, > 100 µM (inactive); in the experiment on SNB-75, > 59.7 µM (inactive); in the experiment on MOLT-4 it was 16.7 µM (inactive). Moreover, the GI50 is > 82.8 µM (inactive) in the experiment on OVCAR-4; 23 µM (inactive) in the experiment with KM12; > 100 µM (inactive) with SK-MEL-28; > 100 µM (inactive) with SK-OV-3; > 91.8 µM (inactive) with UACC-62; > 100 µM (inactive) with A498. For the same compound, the GI50 in the experiment with HCT-116 was 36.1 µM (inactive); in the experiment with M14, 40.6 µM (inactive); in the experiment with OVCAR-5 it was > 100 µM (inactive); in the experiment on RPMI-8226, 6.76 µM (inactive); in the experiment with NCI-H460 it was 65.9 µM (inactive); in the experiment with NCI/ADR-RES, > 61.8 µM (inactive). Besides, the GI50 was > 100 µM (inactive) in the experiment on LOX IMVI and 8.53 µM (inactive) with HL-60.

As for `CCCC(=O)Nc1cc(/C=C/C(=O)N2CC(CCl)c3c2cc(OCc2ccccc2)c2[nH]cc(C)c32)n(C)c1` (configuration not stated), the GI50 is 0.136 µM (active) in the experiment with EKVX; 0.0219 µM (active) in the experiment on A549; 0.0139 µM (active) in the experiment with NCI-H23; 0.0491 µM (active) in the experiment with HOP-62; 0.0675 µM (active) in the experiment with SNB-75; 0.00855 µM (active) in the experiment on MOLT-4. Further, the GI50 with OVCAR-4 is 0.069 µM (active); with KM12 it was 0.102 µM (active); in the experiment on SK-MEL-28 it was 0.215 µM (active); in the experiment on SK-OV-3, 0.199 µM (active); in the experiment with UACC-62, 0.027 µM (active); in the experiment with A498, 0.0953 µM (active). The GI50 with HCT-116 is 0.0272 µM (active); in the experiment with M14, 0.142 µM (active); in the experiment on OVCAR-5, 0.151 µM (active); in the experiment on RPMI-8226, 0.0745 µM (active); in the experiment with NCI-H460, 0.0147 µM (active); with NCI/ADR-RES it was 0.0238 µM (active). Further, the GI50 in the experiment on LOX IMVI was 0.0817 µM (active); in the experiment with HL-60 it was 0.0259 µM (active).

As for `Cc1c2ccnc(-c3ccccc3)c2cc2c1[nH]c1ccccc12`, the GI50 in the experiment on EKVX was 2.92 µM (inactive); with A549 it was 1.29 µM (inactive); with NCI-H23, 1.01 µM (active); in the experiment on HOP-62 it was 2.6 µM (inactive); in the experiment on SNB-75, 2.33 µM (inactive); with MOLT-4, 2.75 µM (inactive). The GI50 was 2.56 µM (inactive) in the experiment on OVCAR-4; 1.45 µM (inactive) in the experiment with KM12; 4.29 µM (inactive) in the experiment on SK-MEL-28; 2.9 µM (inactive) with SK-OV-3; 1.09 µM (active) with UACC-62; 0.219 µM (active) with A498. In addition, the GI50 in the experiment with HCT-116 is 2.12 µM (inactive); in the experiment with OVCAR-5 it was 3.77 µM (inactive); with RPMI-8226, 2.77 µM (inactive); in the experiment on NCI-H460, 1.06 µM (active); in the experiment on NCI/ADR-RES, 0.492 µM (active); in the experiment on LOX IMVI, 1.05 µM (active). In addition, the GI50 in the experiment with HL-60 is 2.09 µM (inactive).

As to `CN(C)CCCNc1ccc2nnn3c4ccc(O)cc4c(=O)c1c23`, the GI50 was 9.98 µM (inactive) in the experiment on EKVX; 0.358 µM (active) in the experiment on A549; 3.56 µM (inactive) with NCI-H23; 3.27 µM (inactive) with HOP-62; 3.37 µM (inactive) with SNB-75; 0.2 µM (active) with MOLT-4. The GI50 is 4.54 µM (inactive) with OVCAR-4; 1.68 µM (inactive) with KM12; 6.52 µM (inactive) in the experiment on SK-MEL-28; 5.6 µM (inactive) with SK-OV-3; 11 µM (inactive) in the experiment with UACC-62; 6.92 µM (inactive) in the experiment on A498. For the same compound, the GI50 was 1.34 µM (inactive) in the experiment with HCT-116; 7.89 µM (inactive) with M14; 9.98 µM (inactive) in the experiment on OVCAR-5; 2.47 µM (inactive) in the experiment on RPMI-8226; 0.453 µM (active) in the experiment on NCI-H460; 4.56 µM (inactive) with NCI/ADR-RES. For the same compound, the GI50 in the experiment on LOX IMVI was 1.16 µM (inactive); with HL-60, 3.72 µM (inactive).

On to `Cc1ccc(S(=O)(=O)N/N=C/c2c(O)ccc3ccccc23)cc1`, for which the GI50 was 32.1 µM (inactive) in the experiment on EKVX; 34 µM (inactive) with A549; 30.5 µM (inactive) with NCI-H23; 37.7 µM (inactive) in the experiment with HOP-62; 20.7 µM (inactive) in the experiment on SNB-75; 20.5 µM (inactive) in the experiment on MOLT-4. The GI50 is 28.8 µM (inactive) in the experiment on OVCAR-4; 18.9 µM (inactive) in the experiment with KM12; 35.5 µM (inactive) with SK-MEL-28; 7.87 µM (inactive) in the experiment with SK-OV-3; 18.2 µM (inactive) in the experiment on UACC-62; 16.7 µM (inactive) in the experiment with A498. Besides, the GI50 with HCT-116 is 15.3 µM (inactive); in the experiment with M14, 22.1 µM (inactive); in the experiment with OVCAR-5, 29.6 µM (inactive); with RPMI-8226 it was 26.7 µM (inactive); with NCI-H460, 26.3 µM (inactive); in the experiment on NCI/ADR-RES, 27.7 µM (inactive). The GI50 in the experiment with LOX IMVI is 32.1 µM (inactive); in the experiment with HL-60, 43.4 µM (inactive).

These data come from ChEMBL document CHEMBL1201862, “PubChem BioAssay data set” (2004).
